Laboratory results reported in patent publication US11780843B2, “Compounds active towards nuclear receptors” (NUEVOLUTION A/S, priority 2020, dated 2023).
Where two headings read alike, the source gives them in different places.

Legend:
[1] = test system: IL-17A secretion in activated PBMCs; assay: IL-17A secretion in activated PBMCs; assay type: cell-based; conditions: human PBMCs stimulated with CD3/CD28 Dynabeads for 48 h, absolute IC50
Source text: Heparin-treated whole blood from healthy human volunteers was supplied from Hospital de Sant Pau (Barcelona) under the approval of the local ethical review board for human studies (Hospital de Sant Pau, Barcelona, Spain). Human peripheral blood mononuclear cells (PBMCs) were isolated from healthy human volunteers by density gradient centrifugation using the Ficoll-Paque (GE Healthcare). PBMCs were suspended in cell culture medium which consisted on RPMI 1640 medium (Sigma-Aldrich) containing 10% heat inactivated fetal bovine serum (Sigma-Aldrich), 2 mM L-Glutamine (Gibco), 20 mM Hepes (Gibco) and 100 U/mL penicillin (Sigma-Aldrich). Cells were seeded in 384-well plate (DiscoverX), at 40,000 cells per well and cultured 2 h at 37° C. and 5% CO2.
Dose-response curves with compounds were prepared using a 5-fold serial dilution (10 concentrations) in 100% DMSO and further diluted 100-fold in culture medium. Compound solutions (5 μL) were added to the plate containing cells (final DMSO concentration of 0.1%) and incubated for 30 min. Then, cells were stimulated with CD3/CD28 Dynabeads (ThermoFisher, at a bead-to-cell ratio of 1:1) for 48 h at 37° C. and 5% CO2.
IL-17A levels in supernatant were determined by immunoassay using hIL17A QBeads (Intellicyt) and by fluorescence analysis in iQue flow cytometer following the manufacturer's instructions. Inhibition of IL-17A secretion was calculated using the following formula: inhibition=100*[1−[(x−mean basal condition)/(mean top condition—mean basal condition)]]. Activated DMSO-treated cells were used as top condition and activated GNE09461 (10 μM)-treated cells as basal condition.

[2] = target: T1, RORγ ligand-binding domain (Homo sapiens, UniProt P51449); assay: RORγ Reporter Assay (Gal4); assay type: cell-based
T1 construct: Gal4 (galactose-responsive transcription factor); expressed in transfected cells; host or cells: HEK293, transient co-transfection
T1 sequence (P51449 269-508 limits assumed): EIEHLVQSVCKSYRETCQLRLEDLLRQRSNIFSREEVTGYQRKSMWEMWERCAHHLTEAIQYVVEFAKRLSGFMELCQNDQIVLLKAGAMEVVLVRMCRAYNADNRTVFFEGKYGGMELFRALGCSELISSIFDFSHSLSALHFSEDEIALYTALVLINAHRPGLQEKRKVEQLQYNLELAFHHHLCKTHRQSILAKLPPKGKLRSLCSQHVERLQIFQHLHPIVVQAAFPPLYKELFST
Procedure: The HEK293 cell line is co-transfected transiently with two plasmids, one with the RORγ ligand-binding domain fused to galactose-responsive transcription factor (Ga14), and the other with the luciferase reporter gene and Gal binding sites (UAS). This construction allows to determine the RORT activity in a cellular system through the measurement of luminescence.
A suspension of RORγ reporter cells was dispensed into plates and cultured 2 h at 37° C. and 5% CO2. Media formulation consisted in DMEM/F-12 medium (Gibco) supplemented with 10% heat inactivated FBS (Sigma-Aldrich), non-essential aminoacids (Sigma-Aldrich), 2 mM Glutamax (Gibco) and 100 U/mL penicillin (Sigma-Aldrich). Dose-response curves with compounds were prepared in 100% DMSO and further diluted 100-fold in culture medium. Compound solutions were added to the plate containing cells (final DMSO concentration of 0.1%) and incubated for 24 h at 37° C. and 5% CO2. Luciferase detection reagent was added to each well, and relative light units (RLUs) were quantified from each assay well using a plate reading luminometer.
Values of average RLU±S.D. were computed for all treatment sets, followed by the calculations of percent-reduction of RORT activity in response to respective test compound. The following formula was used: activity=100*[1−[[…]] where the theoretical minimum reduction (0% reduction). […] These calculations were performed in excel-fit software using X-204 model curve.

[3] = HEK293 cells, luciferase reporter, 24 h incubation, absolute IC50, read-out: IC50

SMILES | IC50 [2, 3] [nM] | IC50 ([2]; stated as a bound only (Tables 5 a, 6, 7), read-out: Gal4 assay IC50) [nM] | IC50 ([1]; Homo sapiens, PBMC, 48 h) [nM] | IC50 [1] [nM]
NC(=O)CN1CC[C@](O)(Cn2ccc3c(N(Cc4ccc(C(F)(F)F)cc4)C4CC4)ncnc32)[C@@H](O)C1 (single isomer, unassigned) [Example L5-1-1-2] | 2 | – | – | 2.3
CCN(Cc1ccc(C(F)(F)F)cc1)c1ncnc2c1ccn2C[C@@]1(O)CCN(CC(N)=O)C[C@@H]1O (single isomer, unassigned) [Example L5-2-1-1] | 1.4 | – | – | 2.7
CCN(Cc1ccc(C(F)(F)F)cc1)c1ncnc2c1ccn2C[C@@]1(O)CCN(CC(N)=O)C[C@@H]1O (single isomer, unassigned) [Example L5-2-1-2] | 2 | – | 3.1 | –
CCN(Cc1ccc(C(F)(F)F)cc1F)c1ncnc2c1ccn2C[C@@]1(O)CCN(CC(N)=O)C[C@@H]1O (single isomer, unassigned) [Example L5-3-1-1] | 3 | – | 9.8 | –
CCN(Cc1ccc(C(F)(F)F)cc1F)c1ncnc2c1ccn2C[C@@]1(O)CCN(CC(N)=O)C[C@@H]1O (single isomer, unassigned) [Example L5-3-1-2] | 4.4 | – | – | 10
NC(=O)CN1CC[C@@H](Cn2ccc3c(N(Cc4ccc(C(F)(F)F)cc4)C4CC4)ncnc32)[C@H](O)C1 (single isomer, unassigned) [Example P6-13-1] | 1.6 | < 100 | 1.1 | –
NC(=O)CN1CC[C@@H](Cn2ccc3c(N(Cc4ccc(C(F)(F)F)cc4)C4CC4)ncnc32)[C@H](O)C1 (single isomer, unassigned) [Example P6-13-2] | 2 | – | – | 1.3
NC(=O)CN1CC[C@@H](Cn2cc(F)c3c(N(Cc4ccc(C(F)(F)F)cc4)C4CC4)ncnc32)[C@H](O)C1 (single isomer, unassigned) [Example P6-14-1] | 3.8 | – | – | 18
NC(=O)CN1CC[C@@H](Cn2cc(F)c3c(N(Cc4ccc(C(F)(F)F)cc4)C4CC4)ncnc32)[C@H](O)C1 (single isomer, unassigned) [Example P6-14-2] | 1 | – | – | 1.7
NC(=O)CN1CC[C@@H](Cn2ccc3c(N(Cc4ccc(C(F)(F)F)cn4)C4CC4)ncnc32)[C@H](O)C1 (single isomer, unassigned) [Example P6-23-1] | 9.9 | – | 59 | –
NC(=O)CN1CC[C@@H](Cn2ccc3c(N(Cc4ccc(C(F)(F)F)cn4)C4CC4)ncnc32)[C@H](O)C1 (single isomer, unassigned) [Example P6-23-2] | 15 | – | – | 98

More lines, main results first:

IC50 [2, 3] [nM] | IC50 ([2]; stated as a bound only (Tables 5 a, 6, 7), read-out: Gal4 assay IC50) [nM] | SMILES | IC50 ([1]; Homo sapiens, PBMC, 48 h) [nM] | IC50 [1] [nM]
8.6 | – | CCN(Cc1ccc(C(F)(F)F)cn1)c1ncnc2c1c(F)cn2C[C@@H]1CCN(CC(N)=O)C[C@H]1O (relative stereo) [P6-28″, rel-2-((3R,4R)-4-((4-(ethyl((5-(trifluoromethyl)pyridin-2-yl)methyl)amino)-5-fluoro-7H-pyrrolo[2,3-d]pyrimidin-7-yl)methyl)-3-hydroxypiperidin-1-yl)acetamide] | 53 | –
6.5 | – | CCN(Cc1ccc(-n2cccn2)cc1)c1ncnc2c1ccn2C[C@@H]1CCN(CC(N)=O)C[C@H]1O (relative stereo) [P6-30″, rel-2-((3R,4R)-4-((4-((4-(1H-pyrazol-1-yl)benzyl)(ethyl)amino)-7H-pyrrolo[2,3-d]pyrimidin-7-yl)methyl)-3-hydroxypiperidin-1-yl)acetamide] | 100 | –
1.9 | – | CCN(Cc1ccc(C(F)(F)F)c(F)c1)c1ncnc2c1ccn2C[C@@H]1CCN(CC(N)=O)C[C@H]1O (relative stereo) [P6-31″, rel-2-((3R,4R)-4-((4-(ethyl(3-fluoro-4-(trifluoromethyl)benzyl)amino)-7H-pyrrolo[2,3-d]pyrimidin-7-yl)methyl)-3-hydroxypiperidin-1-yl)acetamide] | 6 | –
2 | – | CCN(Cc1ccc(C(F)(F)F)cc1F)c1ncnc2c1ccn2C[C@@H]1CCN(CC(N)=O)C[C@H]1O (relative stereo) [P6-32″, rel-2-((3R,4R)-4-((4-(ethyl(2-fluoro-4-(trifluoromethyl)benzyl)amino)-7H-pyrrolo[2,3-d]pyrimidin-7-yl)methyl)-3-hydroxypiperidin-1-yl)acetamide] | 8.4 | –
8.5 | – | NC(=O)CN1CC[C@@H](Cn2ccc3c(N(Cc4ccc(-n5cccn5)cc4)C4CC4)ncnc32)[C@H](O)C1 (relative stereo) [P6-33″, rel-2-((3R,4R)-4-((4-((4-(1H-pyrazol-1-yl)benzyl)(cyclopropyl)amino)-7H-pyrrolo[2,3-d]pyrimidin-7-yl)methyl)-3-hydroxypiperidin-1-yl)acetamide] | 9.9 | –
13 | – | CCN(Cc1ccc(-n2cccn2)cc1)c1ncnc2c1ccn2C[C@@]1(O)CCN(CC(N)=O)C[C@@H]1O (relative stereo) [R5-1″, rel-2-((3R,4R)-4-((4-((4-(1H-pyrazol-1-yl)benzyl)(ethyl)amino)-7H-pyrrolo[2,3-d]pyrimidin-7-yl)methyl)-3,4-dihydroxypiperidin-1-yl)acetamide] | 80 | –
8.1 | – | NC(=O)CN1CC[C@](O)(Cn2ccc3c(N(Cc4ccc(-n5cccn5)cc4)C4CC4)ncnc32)[C@@H](O)C1 (relative stereo) [R5-2″, Rel-2-((3R,4R)-4-((4-((4-(1H-pyrazol-1-yl)benzyl)(cyclopropyl)amino)-7H-pyrrolo[2,3-d]pyrimidin-7-yl)methyl)-3,4-dihydroxypiperidin-1-yl)acetamide] | 7.4 | –
4 | – | Cn1cc(-c2ccc(CN(c3ncnc4c3ccn4C[C@@]3(O)CCN(CC(N)=O)C[C@@H]3O)C3CC3)c(F)c2)cn1 (relative stereo) [R5-3″, rel-2-((3R,4R)-4-((4-(cyclopropyl(2-fluoro-4-(1-methyl-1H-pyrazol-4-yl)benzyl)amino)-7H-pyrrolo[2,3-d]pyrimidin-7-yl)methyl)-3,4-dihydroxypiperidin-1-yl)acetamide] | 11 | –
4.3 | – | NC(=O)CN1CC[C@](O)(Cn2ccc3c(N(Cc4ccc(-n5cccn5)cc4F)C4CC4)ncnc32)[C@@H](O)C1 (relative stereo) [R5-4″, rel-2-((3R,4R)-4-((4-(cyclopropyl(2-fluoro-4-(1H-pyrazol-1-yl)benzyl)amino)-7H-pyrrolo[2,3-d]pyrimidin-7-yl)methyl)-3,4-dihydroxypiperidin-1-yl)acetamide] | 22 | –
4.9 | – | CCN(Cc1ccc(C(F)(F)F)cc1)c1ncnc2c1ccn2C[C@@H]1CCN(CC(N)=O)C[C@H]1O (single isomer, unassigned) [Example P6-24-1] | – | 9.9
9.1 | – | CCN(Cc1ccc(C(F)(F)F)cc1)c1ncnc2c1ccn2C[C@@H]1CCN(CC(N)=O)C[C@H]1O (single isomer, unassigned) [Example P6-24-2] | – | 170
12 | – | CC(C)N(Cc1ccc(C(F)(F)F)cc1)c1ncnc2c1ccn2C[C@@H]1CCN(CC(N)=O)C[C@H]1O (single isomer, unassigned) [Example P6-25-1] | 110 | –
30 | – | CC(C)N(Cc1ccc(C(F)(F)F)cc1)c1ncnc2c1ccn2C[C@@H]1CCN(CC(N)=O)C[C@H]1O (single isomer, unassigned) [Example P6-25-2] | – | 130
5 | – | NC(=O)CN1CC[C@@H](Cn2cnc3c(N(Cc4ccc(C(F)(F)F)cc4)C4CC4)ncnc32)[C@H](O)C1 (single isomer, unassigned) [Example P6-26-2] | 65 | –
